Reference: patent publication US6852333B1, “Agents and methods for promoting production gains in animals” (The Horticulture and Food Research Institute of New Zealand …, priority 1999, dated 2005)

Test system: faecal egg count (parasites)
Assay: Nitric oxide donor and anthelmintic efficacy, time until faecal egg count rose to around 600 (Experiment 15)
Assay type: in vivo, sheep
Conditions: 0.0001 g per kg liveweight oral with anthelmintic every four months
From the text: In a separate experiment 20 sheep (mixed male and females) received standard anthelmintic treatments similar to experiments 3 and 4, with anthelmintics and treatments given every four months. Treatment in 10 of these animals consisted of the anthelmintic dosing and S-nitroso-N-acetylpenicillamine, a nitric oxide donor at a dose of 0.0001 g per kg liveweight in an oral form. The other 10 received the anthelmintic and a glucose control. Anthelmintic successfulness in terms of time from treatment until faecal egg count rose to around 600 as described in experiments 3 and 4 was examined. […] FIG. 22 illustrates this.

CC(=O)N[C@H](C(=O)O)C(C)(C)SN=O (racemic) [S-nitroso-N-acetylpenicillamine]
effectiveness of anthelmintic (time until faecal egg count rose to around 600): better effectiveness of anthelmintic than control animals
